From patent publication US10344019B2 (priority 2010, dated 2019)
Read-outs that look alike come from different tables or passages of the source.

Experiments:
Assay type in all cases: cell-based
[1] = test system: Q30R in genotype 1a NS5A, 1a Rluc replicon transfected into Huh-7 cured-51 cells; experiment: HCV replicon assay, resistance mutant 1a Q30R
Method: Evaluation of cell-based anti-HCV activity: Antiviral potency (EC50) was determined using a Renilla luciferase (RLuc)-based HCV replicon reporter assay. To perform the assay for genotype 1 and 2a JFH-1, HCV 1b RLuc cells (harboring a dicistronic genotype 1b Con1 replicon that encodes a RLuc reporter), or HCV 1a RLuc cells (harboring a dicistronic genotype 1a H77 replicon that encodes a RLuc reporter), or HCV 2a JFH-1 Rluc cells (harboring a dicistronic genotype 2a JFH-1 replicon that encodes a RLuc reporter) were dispensed into 384-well plates. To perform the assay for genotype 2a (with M31 present) or 2b, HCV 2a Rluc or 2b Rluc cells (both with M31 present) harboring a dicistronic NS5A chimeric genotype 2a JFH-1 replicon that encodes a RLuc reporter and either genotype 2a J6 strain NS5A gene or genotype 2b MD2b-1 NS5A gene (based on Los Alamos HCV database isolates, both with M31 present) respectively, were dispensed into 384-well plates. To perform the assay for genotype 3 and 4, HCV 3a RLuc or 4a Rluc cells harboring a dicistronic NS5A chimeric genotype 1b Con1 replicon that encodes a RLuc reporter and either a consensus genotype 3a NS5A gene or genotype 4a NS5A gene (based on Los Alamos HCV database isolates) respectively, were dispensed into 384-well plates. Compounds were re-suspended in DMSO at a concentration of 10 mM and serially diluted in DMSO either manually or using an automated pipeting instrument. Serially diluted compounds were mixed with cell culture media and added to the seeded cells. […] 72 hours later, cells were lysed and Renilla luciferase activity quantified as recommended by the manufacturer (Promega-Madison, Wis.). Non-linear regression was performed to calculate EC50 values.
To determine the antiviral potency (EC50) against resistance mutants, resistance mutations, including M28T, Q30R, Q30H, L31M, and Y93C in genotype 1a NS5A and Y93H in genotype 1b NS5A, were introduced individually into either 1a Rluc or 1b Rluc replicons described above by site directed mutagenesis. Replicon RNA of each resistant mutant was transfected into Huh-7 cured-51 cells and antiviral potency was determined on these transfected cells as described above.

[2] = test system: HCV 3a RLuc cells (NS5A chimeric genotype 1b Con1 replicon with consensus genotype 3a NS5A gene); experiment: microbe, parasite or virus in culture; conditions: Hepatitis C virus
In short: (§1)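 Replicon cells stably carrying the listed RLuc-encoding dicistronic replicons were seeded and treated with DMSO serial dilutions of compound (10 mM stocks) diluted into culture medium. After 72 h, cells were lysed and Renilla luciferase activity measured. EC50 was derived by non-linear regression.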

[3] = test system: HCV 1a RLuc cells (dicistronic genotype 1a H77 replicon, RLuc reporter); experiment: microbe, parasite or virus in culture; conditions: Hepatitis C virus, read-out: 1a
In short: (§2)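 Renilla luciferase HCV replicon cells: dicistronic 1b Con1, 1a H77 or 2a JFH-1 replicons, or a JFH-1 chimera carrying J6 NS5A (M31 present). Compound in DMSO serial dilutions, 72 h incubation, then lysis and luciferase read. EC50 by non-linear regression.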

[4] = test system: HCV 4a Rluc cells (NS5A chimeric genotype 1b Con1 replicon with genotype 4a NS5A gene); experiment: microbe, parasite or virus in culture; conditions: read-out: 4a
In short: as §1

[5] = test system: HCV 2b Rluc cells (NS5A chimeric genotype 2a JFH-1 replicon with genotype 2b MD2b-1 NS5A gene, M31 present); experiment: microbe, parasite or virus in culture; conditions: read-out: 2b
In short: as §1

[6] = test system: HCV 2a JFH-1 Rluc cells (dicistronic genotype 2a JFH-1 replicon, RLuc reporter); experiment: microbe, parasite or virus in culture; conditions: Hepatitis C virus, read-out: 2a JFH
In short: as §2

[7] = test system: HCV 2a Rluc cells (NS5A chimeric genotype 2a JFH-1 replicon with genotype 2a J6 strain NS5A gene, M31 present); experiment: HCV replicon reporter assay, genotype 2a J6 (M31 present); conditions: read-out: 2a J6
In short: as §2

[8] = test system: HCV 1b RLuc cells (dicistronic genotype 1b Con1 replicon, RLuc reporter); experiment: microbe, parasite or virus in culture; conditions: Hepatitis C virus, read-out: 1b (nM)
In short: as §2

[9] = Hepatitis C virus, Huh-7, read-out: 1a Q30R
[10] = read-out: 3a, genotype 3a replicon
[11] = read-out: 3a, genotype 3a NS5A chimeric replicon
[12] = genotype 2a JFH-1 RLuc replicon

Compound | EC50 [1, 9] | EC50 [2, 10] | EC50 ([3]; genotype 1a replicon) | EC50 ([4]; Hepatitis C virus) | EC50 ([5]; Hepatitis C virus) | EC50 ([6]; genotype 2a JFH-1 replicon) | EC50 ([7]; Hepatitis C virus) | EC50 [2, 11] | EC50 ([3]; genotype 1a H77 RLuc replicon) | EC50 [6, 12] | EC50 ([1]; read-out: 1a Q30R, genotype 1a NS5A Q30R resistance mutant) | EC50 ([4]; genotype 4a NS5A chimeric replicon) | EC50 ([5]; genotype 2b NS5A chimeric replicon, M31 present) | EC50 ([7]; genotype 2a J6 NS5A chimeric replicon, M31 present) | EC50 [8]
COC(=O)N[C@H](C(=O)N1CCC[C@H]1c1ncc(-c2ccc3c(c2)COc2cc4c(cc2-3)CCc2nc([C@@H]3CCCN3C(=O)[C@H](NC(=O)OC)c3ccccc3)[nH]c2-4)[nH]1)C(C)C [Example 434] | 1 to 999 pM | 1 to 990 pM | 1 to 999 pM | 1 to 990 pM | 1 to 999 pM | 1 to 999 pM | 1 to 999 pM | – | – | – | – | – | – | – | –
COC(=O)N[C@H](C(=O)N1CCC[C@H]1c1nc2c([nH]1)-c1cc3c(cc1CC2)-c1ccc(-c2cnc([C@@H]4CCCN4C(=O)[C@H](NC(=O)OC)c4ccccc4)[nH]2)cc1CO3)C(C)C [Example 435] | 1 to 999 pM | 1 to 990 pM | 1 to 999 pM | 1 to 990 pM | 1 to 999 pM | 1 to 999 pM | 1 to 999 pM | – | – | – | – | – | – | – | –
COC(=O)N[C@H](C(=O)N1CCC[C@H]1c1ncc(-c2ccc3c(c2)COc2cc4c(ccc5nc([C@@H]6C[C@H](C)CN6C(=O)[C@@H](NC(=O)OC)C(C)C)[nH]c54)cc2-3)[nH]1)C(C)C [Example 526] | 1 to 999 pM | – | – | 1 to 990 pM | 1 to 999 pM | – | 1 to 999 pM | 1 to 990 pM | 1 to 999 pM | 1 to 999 pM | – | – | – | – | –
COC[C@H]1C[C@@H](c2nc3ccc4cc5c(cc4c3[nH]2)OCc2cc(-c3cnc([C@@H]4CCCN4C(=O)[C@@H](NC(=O)OC)C(C)C)[nH]3)ccc2-5)N(C(=O)[C@H](NC(=O)OC)c2ccccc2)C1 [Example 538] | 1 to 999 pM | – | – | 1 to 990 pM | 1 to 999 pM | – | 1 to 999 pM | 1 to 990 pM | 1 to 999 pM | 1 to 999 pM | – | – | – | – | –
COC[C@H]1C[C@@H](c2nc3ccc4cc(-c5ccc6c(ccc7nc([C@@H]8CCCN8C(=O)[C@@H](NC(=O)OC)C(C)C)[nH]c76)c5)ccc4c3[nH]2)N(C(=O)[C@H](NC(=O)OC)c2ccccc2)C1 [Example 540] | – | – | – | – | – | – | – | 1 to 990 pM | 1 to 999 pM | 1 to 999 pM | 1 to 999 pM | 1 to 990 pM | 1 to 999 pM | 1 to 999 pM | –
COC(=O)N[C@H](C(=O)N1CCC[C@H]1c1ncc(-c2ccc3c(c2)COc2cc4c(ccc5nc([C@@H]6C[C@H](C)CN6C(=O)[C@H](NC(=O)OC)c6ccccc6)[nH]c54)cc2-3)[nH]1)C(C)C [Example 543] | 1 to 999 pM | – | – | 1 to 990 pM | 1 to 999 pM | – | 1 to 999 pM | 1 to 990 pM | 1 to 999 pM | 1 to 999 pM | – | – | – | – | –
COC(=O)N[C@H](C(=O)N1C[C@@H](COC(F)F)C[C@H]1c1nc2ccc3cc4c(cc3c2[nH]1)OCc1cc(-c2cnc([C@@H]3CCCN3C(=O)[C@H](NC(=O)OC)c3ccccc3)[nH]2)ccc1-4)C(C)C [Example 558] | 1 to 999 pM | – | – | 1 to 990 pM | 1 to 999 pM | – | 1 to 999 pM | – | 1 to 999 pM | 1 to 999 pM | – | – | – | – | 0.014 nM
COC[C@H]1C[C@@H](c2nc3ccc4cc5c(cc4c3[nH]2)OCc2cc(-c3cnc([C@@H]4C[C@H](C)CN4C(=O)[C@H](NC(=O)OC)c4ccccc4)[nH]3)ccc2-5)N(C(=O)[C@@H](NC(=O)OC)C(C)C)C1 [Example 572] | 1 to 999 pM | – | – | 1 to 990 pM | 1 to 999 pM | – | 1 to 999 pM | 1 to 990 pM | 1 to 999 pM | 1 to 999 pM | – | – | – | – | –
